The IC50 is the point on the concentration scale where inhibition reaches its midpoint. Broadly, the inhibition is the share of the control response that was lost under treatment. Read a high inhibition as a response far below the control. As a reminder, the MIC is the least concentration at which growth counts as inhibited. As usually defined, the LC50 is the concentration that kills 50% of the test population.

From ChEMBL document CHEMBL5260825, “Chemical Constituents of Bryophytes: Structures and Biological Activity” (J Nat Prod, 2018) come the findings set out here.

Converted amounts (≈) assume the structure as drawn.

One series has as its system Staphylococcus aureus. As to the kind of experiment: Antibacterial activity against Staphylococcus aureus assessed as inhibition of bacterial growth by agar diffusion method. It counts as functional.
For series [1], the system named is Peritoneal macrophage cell. Description: Inhibition of superoxide anion radical release in guinea pig peritoneal macrophages. It counts as functional, cell-based. To be noted: Cavia porcellus.
Series [2] relates to RAW264.7. As to the kind of experiment: Inhibition of LPS-induced NO production in mouse RAW264.7 cells. It counts as functional, cell-based.
Series [3] concerns the target Procathepsin L (Homo sapiens) (UniProt P07711). As to the kind of experiment: Inhibition of Cathepsin L (unknown origin) at 0.00001 M relative to control. Particulars: dose 10 µM.
Series [4] addresses Cathepsin B (Homo sapiens) (UniProt P07858). As to the kind of experiment: Inhibition of Cathepsin B (unknown origin) at 0.00001 M relative to control. Particulars: dose 10 µM.
The target in a further series is DNA polymerase beta (Homo sapiens, UniProt P06746). Description: Inhibition of DNA polymerase beta (unknown origin).
Series [5] deals with Candida albicans. As to the kind of experiment: Antifungal activity against Candida albicans assessed as inhibition of fungal growth by MTT method. It counts as functional.
The subject of the next series is KB. As to the kind of experiment: Antiproliferative activity against human KB cells assessed as cell growth inhibition. It counts as functional, cell-based.
A further series deals with HL-60. Description: Antiproliferative activity against human HL-60 cells assessed as cell growth inhibition. It counts as functional, cell-based.
A further series has as its system Bacillus subtilis. As to the kind of experiment: Antibacterial activity against Bacillus subtilis assessed as inhibition of bacterial growth. It counts as functional.
Series [6] is described as follows: Antioxidant activity assessed as DPPH radical scavenging activity. It counts as functional. (The DPPH test is a chemical assay of radical scavenging.)
Series [7] deals with RAW264.7. As to the kind of experiment: Inhibition of LPS-induced NO production in mouse RAW264.7 cells incubated for 24 hrs by Griess reagent based assay. It counts as functional, cell-based. To be noted: RAW264.7, 24 h. For orientation: The Griess reaction detects nitrite, a stable product of nitric oxide.
Series [8] relates to Trichostrongylus colubriformis. Description: Anthelmintic activity against third stage larvae of Trichostrongylus colubriformis by microscope based analysis. It counts as functional, organism-based.
In a further series the test system is RPMI-7951. Description: Antiproliferative activity against human RPMI-7951 cells assessed as cell growth inhibition. It counts as functional. Particulars: read-out: ED50 (the source's name).
For a further series, the system named is U-251. As to the kind of experiment: Antiproliferative activity against human U-251MG cells assessed as cell growth inhibition. It counts as functional. To be noted: read-out: ED50 (the source's name).
The next series deals with Phytophthora infestans. Description: Antifungal activity against Phytophthora infestans assessed as inhibition of microbial growth by microtiter plate based analysis. It counts as functional, organism-based.
The test system of series [9] is Candida albicans. Description: Antifungal activity against Candida albicans assessed as inhibition of fungal growth by MTT assay. It counts as functional.
Series [10] is described as follows: Toxicity in brine shrimp assessed as lethality. To be noted: artemia salina.
Series [11] concerns the target T1, Polyunsaturated fatty acid 5-lipoxygenase (Homo sapiens) (UniProt P09917).
T1 sequence (whole entry): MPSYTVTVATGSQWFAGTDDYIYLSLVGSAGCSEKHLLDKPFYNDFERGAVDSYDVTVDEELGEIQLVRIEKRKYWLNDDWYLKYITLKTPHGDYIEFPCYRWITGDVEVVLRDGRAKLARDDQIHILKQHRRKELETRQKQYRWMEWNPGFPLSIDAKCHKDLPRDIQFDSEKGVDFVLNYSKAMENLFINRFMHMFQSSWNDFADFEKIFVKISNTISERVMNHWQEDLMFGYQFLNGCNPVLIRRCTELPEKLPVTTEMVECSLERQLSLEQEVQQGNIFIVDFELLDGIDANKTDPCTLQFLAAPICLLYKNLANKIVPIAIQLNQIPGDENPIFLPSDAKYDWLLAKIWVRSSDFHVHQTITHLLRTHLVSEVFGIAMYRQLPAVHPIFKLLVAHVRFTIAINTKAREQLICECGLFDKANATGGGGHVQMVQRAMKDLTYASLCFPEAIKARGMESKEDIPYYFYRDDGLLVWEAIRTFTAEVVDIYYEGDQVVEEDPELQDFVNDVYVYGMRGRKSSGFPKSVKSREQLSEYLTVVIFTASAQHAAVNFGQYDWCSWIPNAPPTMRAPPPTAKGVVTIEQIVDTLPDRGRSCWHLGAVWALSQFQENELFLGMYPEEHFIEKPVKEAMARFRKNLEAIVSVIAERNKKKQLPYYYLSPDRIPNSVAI
Description: Inhibition of ALOX5 (unknown origin) at 0.000001 M relative to control. Particulars: dose 1 µM.

Sequence of Procathepsin L (Homo sapiens) (P07711 114-333 limits assumed): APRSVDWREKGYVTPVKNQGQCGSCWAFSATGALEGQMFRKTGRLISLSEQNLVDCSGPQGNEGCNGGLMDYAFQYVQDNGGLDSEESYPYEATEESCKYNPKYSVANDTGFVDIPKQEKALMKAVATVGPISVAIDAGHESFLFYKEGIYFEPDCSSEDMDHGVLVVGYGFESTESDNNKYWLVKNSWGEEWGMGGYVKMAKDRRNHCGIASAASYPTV

Turning to `O=C(N[C@H](CO)[C@H](O)c1ccc([N+](=O)[O-])cc1)C(Cl)Cl` [CHLORAMPHENICOL], the “diameter of the inhibition zone (DIZ)” value in the series with Staphylococcus aureus is 22 mm.

For the compound `COC(=O)[C@@]12Cc3occc3C(=O)[C@]1(C)CC[C@H]2C` [NORPINGUISONE METHYL ESTER], the 50% inhibitory concentration (IC50) in [1] came out at 35 µg/mL (≈ 133 µM); with RAW264.7 [2], 45.5 µM.

For the compound `C=C1C(=O)O[C@@H]2[C@H]3C(C)=C[C@H]4OC(=O)C(=CC[C@@H]12)[C@@H]34`, the inhibition in series [3] came to 13.4%; in series [4], 24.7%.

For `Oc1ccc2c(c1)CCc1ccc(cc1)Oc1cc(cc(-c3cc4c(cc3O)CCc3ccc(cc3)Oc3cc(ccc3O)CCc3ccc-4c(O)c3)c1O)CCc1ccc-2c(O)c1`, inhibition against DNA polymerase beta was half-maximal at 5.16 µM (IC50).

As to `COC(=O)c1c(C)cc(O)c(C)c1O` [ATRARIC ACID], the MIC with Candida albicans [5] was determined as 0.6 µg/mL (≈ 3.06 µM).

As to `COc1ccc(C[C@@H]2OC(=O)c3c(OC)cc(OC)cc32)cc1`, the IC50 in the series with KB amounted to 960 nM; with HL-60, 920 nM.

Take `C[C@H]1CC[C@@]2(C)[C@@H](CC[C@@H]3O[C@@]32C)[C@]1(C)CCc1ccoc1`: it took 4.5 µM to reach half-maximal inhibition with RAW264.7 [2] (IC50).

As to `Cc1cc([C@@]2(C)CCCC2(C)C)c(O)c(O)c1Cc1cc(O)c(O)c([C@@]2(C)CCCC2(C)C)c1`, the IC50 in the series on HL-60 turned out to be 2.4 µg/mL; in series [6] it was 2.7 µg/mL (≈ 5.79 µM); in the series on RAW264.7 [7], 4.1 µM. For the same compound, the “diameter of the inhibition zone (DIZ)” value in the series with Staphylococcus aureus is listed as 13 mm. The minimal inhibitory concentration (MIC) in the series with Bacillus subtilis was determined as 2 µg/mL (≈ 4.29 µM).

Consider `CO[C@@H]1CC[C@]2(C)C3CCC4C(=CCC5C(C)(C)[C@H](O)CC[C@]45C)C[C@]3(C)CC[C@H]2C1(C)C` (some centres not stated), for which, in the series with Candida albicans [5], the MIC was 2 µg/mL (≈ 4.38 µM).

The compound `COc1cc(/C=C/c2ccccc2)ccc1O` came in with an IC50 in series [8] of 60 µg/mL (≈ 265 µM).

As to `NC[C@H]1O[C@H](O[C@H]2[C@H](O)[C@@H](O[C@H]3O[C@H](CO)[C@@H](O)[C@H](N)[C@H]3O)[C@H](N)C[C@@H]2N)[C@H](O)[C@@H](O)[C@@H]1O` [KANAMYCIN], in the series with Staphylococcus aureus, the “diameter of the inhibition zone (DIZ)” value turned out to be 23 mm.

In series [8], `CC1(C)CCC[C@]2(C)[C@@H](C=O)C(C=O)=CC[C@@H]12` [POLYGODIAL] showed an IC50 of 70 µg/mL (≈ 299 µM).

`O=C(/C=C\c1ccccc1)c1cc(O)cc2c1CC(c1ccccc1)O2` (configuration not stated) [PALLIDISETIN B]: the EC50 with RPMI-7951 was 1 µg/mL (≈ 2.92 µM); with U-251 it was 2 µg/mL (≈ 5.84 µM).

In the series on RAW264.7 [2], `CC(C)=CCC[C@@]1(C)C=Cc2c(CCc3ccccc3)cc(O)cc2O1` yielded an IC50 of 4.5 µM.

In the series on RAW264.7 [2], `C=C1C[C@@]23CC(OC(=O)/C=C/c4ccc(O)c(O)c4)[C@@H]1[C@@]2(C)CCCC3(C)C` (some centres not stated) gave an IC50 of 6.3 µM.

On to `C=C1CC[C@]2(C)[C@@H](O)[C@H]1[C@]1(C)CCC[C@@]12C`, for which the concentration for half-maximal inhibition (IC50) in the series with Phytophthora infestans was found to be 0.1 µg/mL.

For the compound `Oc1ccc2cc1Oc1ccc(cc1)CCc1c(cc(O)c(O)c1O)-c1ccc(cc1O)CC2`, in the series on Candida albicans [9], the MID was 4 µg/mL.

As for `COc1ccc(CCc2c(Cl)ccc(O)c2Cl)cc1Cl`, the LC50 in series [10] is recorded as 0.42 ppm.

`COc1cc(/C=C\c2ccccc2)ccc1O`: the IC50 in series [8] was 70 µg/mL (≈ 309 µM).

`Cc1cc(O)c(O)c([C@@]2(C)CCCC2(C)C)c1`: the results for the IC50 (with HL-60; in [6]; with RAW264.7 [7]) were 1.4 µg/mL, 1.9 µg/mL (≈ 8.11 µM) and 4.1 µM, respectively. For the same compound, the “diameter of the inhibition zone (DIZ)” value in the series on Staphylococcus aureus amounted to 17 mm. Moreover, the MIC in the series with Bacillus subtilis turned out to be 2 µg/mL (≈ 8.53 µM).

For `CC(C)=CCc1c(O)cc(CCc2ccccc2)cc1O`, the inhibition in series [11] is 4%.

Consider `Cc1ccc(O)c([C@@]2(C)CCCC2(C)C)c1`, for which the IC50 in the series on RAW264.7 [7] is 4.1 µM.

For the compound `COc1ccc(CCc2c(Cl)ccc(O)c2Cl)cc1`, the LC50 in series [10] is reported as 0.42 ppm.

In the series with RAW264.7 [7], `Cc1ccc([C@@]2(C)CCCC2(C)C)c(O)c1O` displayed an IC50 of 4.1 µM.

At DNA polymerase beta, `Oc1cccc(CCc2ccc(Oc3cc(CCc4cccc(O)c4)cc(O)c3O)cc2)c1` [PERROTETTIN F] yielded an IC50 of 14.4 µM.
